The results in this text go back to US7491794B2, “Macrocyclic compounds as inhibitors of viral replication” (Intermune, Inc., priority 2003, dated 2009).

Where only a bound is given, the exact number is not on record here.

T1 sequence (P27958 1027-1657): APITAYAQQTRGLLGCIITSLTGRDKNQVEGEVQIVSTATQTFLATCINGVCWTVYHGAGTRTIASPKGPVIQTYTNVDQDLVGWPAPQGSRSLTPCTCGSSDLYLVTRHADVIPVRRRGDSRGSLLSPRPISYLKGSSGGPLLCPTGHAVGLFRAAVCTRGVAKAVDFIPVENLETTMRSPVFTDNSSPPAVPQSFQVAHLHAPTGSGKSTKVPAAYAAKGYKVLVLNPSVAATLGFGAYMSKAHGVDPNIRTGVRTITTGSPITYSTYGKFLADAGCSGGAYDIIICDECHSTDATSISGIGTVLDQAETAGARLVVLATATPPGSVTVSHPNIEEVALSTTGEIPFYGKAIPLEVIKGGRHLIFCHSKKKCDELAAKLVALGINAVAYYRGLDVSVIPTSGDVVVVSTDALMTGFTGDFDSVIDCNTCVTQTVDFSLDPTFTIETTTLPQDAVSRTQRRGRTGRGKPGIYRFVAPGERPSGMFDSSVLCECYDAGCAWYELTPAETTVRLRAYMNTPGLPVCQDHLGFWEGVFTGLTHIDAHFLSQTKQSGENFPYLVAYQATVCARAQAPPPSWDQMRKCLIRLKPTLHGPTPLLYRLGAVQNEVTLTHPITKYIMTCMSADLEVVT

The assay addresses T1, NS3-NS4 protease (Hepatitis C virus genotype 1a, UniProt P27958).
T1 construct: Recombinant E. coli or Baculovirus full-length NS3 was diluted to 3.33 μM with assay buffer; made in house; host or cells: E. coli or baculovirus (BV) system
In words: NS3-NS4 protease assay / NS3 inhibition assay, Section D. The assay is classed as biochemical. As for the experimental part:
NS3-NS4 Protease Assay NS3 complex formation with NS4A-2.
Recombinant E. coli or Baculovirus full-length NS3 was diluted to 3.33 μM with assay buffer and transferred material to an eppendorf tube and place in water bath in 4° C. refrigerator. The appropriate amount of NS4A-2 to 8.3 mM in assay buffer was added to equal the volume of NS3 in step 2.1.1 (conversion factor −3.8 mg/272 μL assay buffer). The material was transferred to an eppendorf tube and place in water bath in 4° C. refrigerator.
After equilibration to 4° C., equal volumes of NS3 and NS4A-2 solutions were combined in an eppendorf tube, mix gently with a manual pipettor, and incubate mixture for 15 minutes in the 4° C. water bath. Final concentrations in the mixture are 1.67 μM NS3, 4.15 mM NS4A-2 (2485-fold molar excess NS4A-2).
After 15 minutes at 4° C., the NS3/NS4A-2 eppendorf tube was removed and placed in a room temperature water bath for 10 minutes. NS3/NS4A-2 was alliquoted at appropriate volumes and store at −80° C. (E. coli NS3 run at 2 nM in assay, aliquot at 25 μL. BV NS3 run at 3 nM in assay, aliquot at 30 μL).
Sample compounds were dissolved to 10 mM in DMSO then diluted to 2.5 mM (1:4) in DMSO.
The E. coli. NS3/NS4A-2 was diluted to 4 nM NS3 (1:417.5 of 1.67 μM stock−18 μL 1.67 μM stock+7497 μL assay buffer).
The BV NS3/NS4A-2 was diluted to 6 nM NS3 (1:278.3 of 1.67 μM stock−24 μL 1.67 μM stock+6655 μL assay buffer).
Using the manual multichannel pipettor, careful not to introduce bubbles into the plate, add 50 μL assay buffer to wells A01-H01 of a black Costar 96-well polypropylene storage plate.
Using the manual multichannel pipettor, careful not to introduce bubbles into the plate, add 50 μL of diluted NS3/NS4A-2 from step 2.2.6 to wells A02-H12 of plate in step 2.2.7.
Using the manual multichannel pipettor, careful not to introduce bubbles into the plate, transfer 25 μL of the wells in drug dilution plate in step 2.2.5 to corresponding wells in assay plate in step 2.2.8. Change tips on multichannel pipettor for each row of compounds transferred.
Using the manual multichannel pipettor, careful not to introduce bubbles into the plate, mix the wells from the assay plate in step 2.2.9 by aspirating and dispensing 35 μL of the 75 μL in each well five times. Change tips on multichannel pipettor for each row of wells mixed.
Cover plate with a polystyrene plate lid and pre-incubate the plate from step 2.2.10 containing NS3 protease and sample compounds 10 minutes at room temperature.
While plate from step 2.2.11 is pre-incubating, dilute RETS1 substrate in a 15 mL polypropylene centrifuge tube.
Dilute RETS1 substrate to 8 μM (1:80.75 of 646 μM stock−65 μL 646 μM stock+5184 μL assay buffer).
After the plate in step is done pre-incubating, and using the manual multichannel, add 25 μL of substrate to all wells on the plate. Quickly mix the plate as in step 2.2.10, mixing 65 μL of the 100 μL in the wells.
Read the plate in kinetic mode on the Molecular Devices SpectraMax Gemini XS plate reader. Reader settings: Read time: 30 minutes, Interval: 36 seconds, Reads: 51, Excitation k: 335 nm, Emission k: 495 nm, cutoff: 475 nm, Automix: off, Calibrate: once, PMT: high, Reads/well: 6, Vmax pts: 21 or 28/51 depending on length of linearity of reaction.
IC50s are determined using a four parameter curve fit equation, and converted to Ki's using the following Km's:
where Ki=IC50/(1+[S]/Km))
For orientation: IC50 means the concentration that inhibits the measured activity by half. Low values mean greater potency in that assay, high ones weaker potency in that assay. For the compound `CCc1ccc(C(=O)N[C@@H]2C[C@H]3C(=O)N[C@]4(C(=O)NS(=O)(=O)C5CC5)C[C@H]4/C=C\CCCCC[C@H](NC(=O)OC(C)(C)C)C(=O)N3C2)cc1` [Example 3], the IC50 is less than 100 nM.

In turn, `CC(C)(C)OC(=O)N[C@H]1CCCCC/C=C\[C@@H]2C[C@@]2(C(=O)NS(=O)(=O)C2CC2)NC(=O)[C@@H]2C[C@@H](NC(=O)c3ccc(Cl)cc3)CN2C1=O` [Example 4] showed an IC50 of less than 100 nM. `CC(C)(C)OC(=O)N[C@H]1CCCCC/C=C\[C@@H]2C[C@@]2(C(=O)NS(=O)(=O)C2CC2)NC(=O)[C@@H]2C[C@@H](NC(=O)c3c(Cl)cc(Cl)cc3Cl)CN2C1=O` [Example 5] displayed a concentration for half-maximal inhibition (IC50) of less than 100 nM.

The compound `COc1ccc(C(=O)N[C@@H]2C[C@H]3C(=O)N[C@]4(C(=O)NS(=O)(=O)C5CC5)C[C@H]4/C=C\CCCCC[C@H](NC(=O)OC(C)(C)C)C(=O)N3C2)cc1` [Example 6] had an IC50 of less than 100 nM.

`COc1cccc(C(=O)N[C@@H]2C[C@H]3C(=O)N[C@]4(C(=O)NS(=O)(=O)C5CC5)C[C@H]4/C=C\CCCCC[C@H](NC(=O)OC(C)(C)C)C(=O)N3C2)c1` [Example 7] showed an IC50 of less than 100 nM. The same measure for `COc1ccc(C(=O)N[C@@H]2C[C@H]3C(=O)N[C@]4(C(=O)NS(=O)(=O)C5CC5)C[C@H]4/C=C\CCCCC[C@H](NC(=O)OC(C)(C)C)C(=O)N3C2)cc1C(F)(F)F` [Example 8]: less than 100 nM. The same measure for `CC(C)(C)OC(=O)N[C@H]1CCCCC/C=C\[C@@H]2C[C@@]2(C(=O)NS(=O)(=O)C2CC2)NC(=O)[C@@H]2C[C@@H](NC(=O)c3ccc(C#N)cc3)CN2C1=O` [Example 9]: less than 100 nM; for `CC(C)(C)OC(=O)N[C@H]1CCCCC/C=C\[C@@H]2C[C@@]2(C(=O)NS(=O)(=O)C2CC2)NC(=O)[C@@H]2C[C@@H](NC(=O)c3cccc(C#N)c3)CN2C1=O` [Example 10]: less than 100 nM; for `CN(C)c1ccc(C(=O)N[C@@H]2C[C@H]3C(=O)N[C@]4(C(=O)NS(=O)(=O)C5CC5)C[C@H]4/C=C\CCCCC[C@H](NC(=O)OC(C)(C)C)C(=O)N3C2)cc1` [Example 11]: less than 100 nM. Next, `CC(C)Nc1nc(C(=O)N[C@@H]2C[C@H]3C(=O)N[C@]4(C(=O)NS(=O)(=O)C5CC5)C[C@H]4/C=C\CCCCC[C@H](NC(=O)OC(C)(C)C)C(=O)N3C2)cs1` [Example 12]: less than 100 nM; `CN(C)c1ccc(C(=O)N[C@@H]2C[C@H]3C(=O)N[C@]4(C(=O)NS(=O)(=O)C5CC5)C[C@H]4/C=C\CCCCC[C@H](NC(=O)OC(C)(C)C)C(=O)N3C2)cn1` [Example 13]: less than 100 nM. `CC(C)(C)OC(=O)N[C@H]1CCCCC/C=C\[C@@H]2C[C@@]2(C(=O)NS(=O)(=O)C2CC2)NC(=O)[C@@H]2C[C@@H](NC(=O)c3ccc(N4CCOCC4)nc3)CN2C1=O` [Example 14]: the IC50 is less than 100 nM. In the case of `CC(C)(C)OC(=O)N[C@H]1CCCCC/C=C\[C@@H]2C[C@@]2(C(=O)NS(=O)(=O)C2CC2)NC(=O)[C@@H]2C[C@@H](NC(=O)c3ccc(F)c(F)c3)CN2C1=O` [Example 15], the IC50 was less than 100 nM. As for `CC(C)(C)OC(=O)N[C@H]1CCCCC/C=C\[C@@H]2C[C@@]2(C(=O)NS(=O)(=O)C2CC2)NC(=O)[C@@H]2C[C@@H](NC(=O)c3ccc(Cl)c(Cl)c3)CN2C1=O` [Example 16], the IC50 was less than 100 nM.

Consider `CC(C)(C)OC(=O)N[C@H]1CCCCC/C=C\[C@@H]2C[C@@]2(C(=O)NS(=O)(=O)C2CC2)NC(=O)[C@@H]2C[C@@H](NC(=O)c3ccc(S(N)(=O)=O)cc3)CN2C1=O` [Example 17], for which the IC50 is less than 100 nM. Compound `CC(C)(C)OC(=O)N[C@H]1CCCCC/C=C\[C@@H]2C[C@@]2(C(=O)NS(=O)(=O)C2CC2)NC(=O)[C@@H]2C[C@@H](NC(=O)c3ccc(C(N)=O)cc3)CN2C1=O` [Example 18] displayed a 50% inhibitory concentration (IC50) of less than 100 nM. `CC(C)(C)OC(=O)N[C@H]1CCCCC/C=C\[C@@H]2C[C@@]2(C(=O)NS(=O)(=O)C2CC2)NC(=O)[C@@H]2C[C@@H](NC(=O)c3ccc(-c4ccccc4)cc3)CN2C1=O` [Example 19] registered an IC50 of less than 100 nM. Compound `CC(C)(C)OC(=O)N[C@H]1CCCCC/C=C\[C@@H]2C[C@@]2(C(=O)NS(=O)(=O)C2CC2)NC(=O)[C@@H]2C[C@@H](NC(=O)c3ccc(-n4ccnc4)cc3)CN2C1=O` [Example 20] registered an IC50 of less than 100 nM. The same measure for `CC(C)(C)OC(=O)N[C@H]1CCCCC/C=C\[C@@H]2C[C@@]2(C(=O)NS(=O)(=O)C2CC2)NC(=O)[C@@H]2C[C@@H](NC(=O)c3cnn(-c4ccccc4)c3C(F)(F)F)CN2C1=O` [Example 21]: less than 100 nM. Next, `CC(C)(C)OC(=O)N[C@H]1CCCCC/C=C\[C@@H]2C[C@@]2(C(=O)NS(=O)(=O)C2CC2)NC(=O)[C@@H]2C[C@@H](NC(=O)c3ccc(-c4ccc(Cl)cc4)o3)CN2C1=O` [Example 22]: less than 100 nM. Next, `CC(C)(C)OC(=O)N[C@H]1CCCCC/C=C\[C@@H]2C[C@@]2(C(=O)NS(=O)(=O)C2CC2)NC(=O)[C@@H]2C[C@@H](NC(=O)c3csc(-c4ccc(Cl)cc4)c3)CN2C1=O` [Example 23]: less than 100 nM; `CC(C)(C)OC(=O)N[C@H]1CCCCC/C=C\[C@@H]2C[C@@]2(C(=O)NS(=O)(=O)C2CC2)NC(=O)[C@@H]2C[C@@H](NC(=O)c3csc(-c4ccccc4)n3)CN2C1=O` [Example 24]: less than 100 nM. In turn, `CC(C)(C)OC(=O)N[C@H]1CCCCC/C=C\[C@@H]2C[C@@]2(C(=O)NS(=O)(=O)C2CC2)NC(=O)[C@@H]2C[C@@H](NC(=O)c3csc(-c4ccccc4Cl)n3)CN2C1=O` [Example 25] registered an IC50 of less than 100 nM. The compound `CC(C)(C)OC(=O)N[C@H]1CCCCC/C=C\[C@@H]2C[C@@]2(C(=O)NS(=O)(=O)C2CC2)NC(=O)[C@@H]2C[C@@H](NC(=O)c3csc(-c4ccc(Cl)cc4)n3)CN2C1=O` [Example 26] yielded an IC50 of less than 100 nM. Compound `CC(C)(C)OC(=O)N[C@H]1CCCCC/C=C\[C@@H]2C[C@@]2(C(=O)NS(=O)(=O)C2CC2)NC(=O)[C@@H]2C[C@@H](NC(=O)c3ccc4ccccc4c3)CN2C1=O` [Example 27] returned a half-inhibitory concentration (IC50) of less than 100 nM. Next, `CC(C)(C)OC(=O)N[C@H]1CCCCC/C=C\[C@@H]2C[C@@]2(C(=O)NS(=O)(=O)C2CC2)NC(=O)[C@@H]2C[C@@H](NC(=O)c3ccc4ncccc4c3)CN2C1=O` [Example 28]: less than 100 nM; `CC(C)(C)OC(=O)N[C@H]1CCCCC/C=C\[C@@H]2C[C@@]2(C(=O)NS(=O)(=O)C2CC2)NC(=O)[C@@H]2C[C@@H](NC(=O)c3cnc4ccccc4c3)CN2C1=O` [Example 29]: less than 100 nM; `CC(C)(C)OC(=O)N[C@H]1CCCCC/C=C\[C@@H]2C[C@@]2(C(=O)NS(=O)(=O)C2CC2)NC(=O)[C@@H]2C[C@@H](NC(=O)c3cnc4ccccc4n3)CN2C1=O` [Example 30]: less than 100 nM. Next, `CC(C)(C)OC(=O)N[C@H]1CCCCC/C=C\[C@@H]2C[C@@]2(C(=O)NS(=O)(=O)C2CC2)NC(=O)[C@@H]2C[C@@H](NC(=O)c3cc4ccccc4[nH]3)CN2C1=O` [Example 31]: less than 100 nM. Next, `CC(C)(C)OC(=O)N[C@H]1CCCCC/C=C\[C@@H]2C[C@@]2(C(=O)NS(=O)(=O)C2CC2)NC(=O)[C@@H]2C[C@@H](NC(=O)c3cc4cc(Cl)ccc4[nH]3)CN2C1=O` [Example 32]: less than 100 nM. Compound `COc1ccc2[nH]c(C(=O)N[C@@H]3C[C@H]4C(=O)N[C@]5(C(=O)NS(=O)(=O)C6CC6)C[C@H]5/C=C\CCCCC[C@H](NC(=O)OC(C)(C)C)C(=O)N4C3)cc2c1` [Example 33] came in with an IC50 of less than 100 nM. Next, `CC(C)(C)OC(=O)N[C@H]1CCCCC/C=C\[C@@H]2C[C@@]2(C(=O)NS(=O)(=O)C2CC2)NC(=O)[C@@H]2C[C@@H](NC(=O)c3cc4cc(F)ccc4[nH]3)CN2C1=O` [Example 34]: less than 100 nM.
